Patent US6987114B1, “Antiviral pyrimidinedione derivatives and process for the preparation thereof” (Samjin Pharmaceutical Co., Ltd, priority 1999, dated 2006)
Converted amounts (≈) assume the structure as drawn. Like-named read-outs stand apart in the source and are kept apart here.

Tests used:
[1] = system: mock-infected MT-4 cells; experiment: Cytotoxicity based on viability of mock-infected host cells (MTT method); assay type: cell-based; conditions: mock-infected MT-4 cells, MTT method, 4 or 5 days at 37° C.
Protocol: (§1) MT-4 cells were suspended in culture media at 2.5×10^5 cells/ml and infected with 1000 CCID50 (50% cell culture infective dose) of HIV. Immediately after virus infection, 100 μl of cell suspension was brought into each well of a flat-bottomed microtitray containing various concentrations of the test compounds. After 4 or 5 days incubation at 37° C., efficacy of the compounds was determined by the MTT method. Cytotoxicity of the compounds was assessed in parallel with their antiviral activity, based on viability of mock-infected host cells as determined by the MTT method.

[2] = system: HIV; experiment: microbe, parasite or virus in culture; assay type: cell-based
Protocol: Anti-HIV activity tests in vitro of the compounds according to the present invention were performed as described in J. Med. Chem, 34, 357, 1991. Inhibition by the compounds of virus-induced cytotoxic effect in MT-4 cells was measured as follows.
as §1

[3] = Human immunodeficiency virus 1, MT4, HIV-infected MT-4 cells, MTT method, 4 or 5 days at 37° C., read-out: ED50 (the source's name)
[4] = Human immunodeficiency virus 1, MT4, read-out: ED50

Compound	CD50 [1]	melting point	EC50 [2, 3]	EC50 [2, 4]
CCc1c(C(=O)c2cc(C)cc(C)c2)n(CC2CCC2)c(=O)[nH]c1=O [Example 11, 1-(Cyclobutyl)methyl-5-ethyl-6-(3,5-dimethylbenzoyl)-2,4-pyrimidinedione]	89.1 µg/mL	200 to 202 °C	2.7 ng/mL (≈ 0.00793 µM)	
Cc1cc(C)cc(C(=O)c2c(C(C)C)c(=O)[nH]c(=O)n2CC2CCC2)c1 [Example 12, 1-(Cyclobutyl)methyl-5-isopropyl-6-(3,5-dimethylbenzoyl)-2,4-pyrimidinedione]	8.5 µg/mL	171 to 173 °C	2.7 ng/mL (≈ 0.00762 µM)	
CCc1c(C(=O)c2cc(C)cc(C)c2)n(CC2CCCCC2)c(=O)[nH]c1=O [Example 17, 1-(Cyclohexyl)methyl-5-ethyl-6-(3,5-dimethylbenzoyl)-2,4-pyrimidinedione]	7.10 µg/mL	177 to 179 °C		13 ng/mL (≈ 0.0353 µM)
Cc1cc(C)cc(C(=O)c2c(C(C)C)c(=O)[nH]c(=O)n2CC2CCCCC2)c1 [Example 18, 1-(Cyclohexyl)methyl-5-isopropyl-6-(3,5-dimethylbenzoyl)-2,4-pyrimidinedione]	8.00 µg/mL	160 to 162 °C		13 ng/mL (≈ 0.034 µM)
CCc1c(C(=O)c2cc(C)cc(C)c2)n(Cc2ccccc2)c(=O)[nH]c1=O [Example 23, 1-Benzyl-5-ethyl-6-(3,5-dimethylbenzoyl)-2,4-pyrimidine-dione]	8.00 µg/mL	202 to 204 °C	1.6 ng/mL (≈ 0.00441 µM)	
Cc1cc(C)cc(C(=O)c2c(C(C)C)c(=O)[nH]c(=O)n2Cc2ccccc2)c1 [Example 24, 1-Benzyl-5-isopropyl-6-(3,5-dimethylbenzoyl)-2,4-pyrimidinedione]	5.20 µg/mL	188 to 190 °C	0.9 ng/mL (≈ 0.00239 µM)	
CCc1c(Sc2cc(C)cc(C)c2)n(Cc2cccc(OC)c2)c(=O)[nH]c1=O [Example 25, 1-(3-Methoxybenzyl)-5-ethyl-6-(3,5-dimethylphenyl)thio-2,4-pyrimidinedione]	9.04 µg/mL	130 to 131 °C	3 ng/mL (≈ 0.00757 µM)	
COc1cccc(Cn2c(Sc3cc(C)cc(C)c3)c(C(C)C)c(=O)[nH]c2=O)c1 [Example 26, 1-(3-Methoxybenzyl)-5-isopropyl-6-(3,5-dimethylphenyl)thio-2,4-pyrimidinedione]	9.53 µg/mL	135 to 137 °C	3 ng/mL (≈ 0.00731 µM)	
CCc1c(Oc2cc(C)cc(C)c2)n(Cc2cccc(OC)c2)c(=O)[nH]c1=O [Example 27, 1-(3-Methoxybenzyl)-5-ethyl-6-(3,5-dimethylphenoxy)-2,4-pyrimidinedione]	10.68 µg/mL	133 to 135 °C	14 ng/mL (≈ 0.0368 µM)	
COc1cccc(Cn2c(Oc3cc(C)cc(C)c3)c(C(C)C)c(=O)[nH]c2=O)c1 [Example 28, 1-(3-Methoxybenzyl)-5-isopropyl-6-(3,5-dimethylphenoxy)-2,4-pyrimidinedione]	30.60 µg/mL	158 to 159 °C	6 ng/mL (≈ 0.0152 µM)	
CCc1c(C(=O)c2cc(C)cc(C)c2)n(Cc2cccc(OC)c2)c(=O)[nH]c1=O [Example 29, 1-(3-Methoxybenzyl)-5-ethyl-6-(3,5-dimethylbenzoyl)-2,4-pyrimidinedione]	7.22 µg/mL	185 to 187 °C	3 ng/mL (≈ 0.00764 µM)	
COc1cccc(Cn2c(C(=O)c3cc(C)cc(C)c3)c(C(C)C)c(=O)[nH]c2=O)c1 [Example 30, 1-(3-Methoxybenzyl)-5-isopropyl-6-(3,5-dimethylbenzoyl)-2,4-pyrimidinedione]	3.83 µg/mL	184 to 186 °C	2 ng/mL (≈ 0.00492 µM)	
CCc1c(Sc2cc(C)cc(C)c2)n(Cc2ccc(OC(F)(F)F)cc2)c(=O)[nH]c1=O [Example 31, 1-(4-Trifluoromethoxybenzyl)-5-ethyl-6-(3,5-dimethylphenyl)thio-2,4-pyrimidinedione]	4.86 µg/mL	138 to 140 °C	17 ng/mL (≈ 0.0377 µM)	
Cc1cc(C)cc(Sc2c(C(C)C)c(=O)[nH]c(=O)n2Cc2ccc(OC(F)(F)F)cc2)c1 [Example 32, 1-(4-Trifluoromethoxybenzyl)-5-isopropyl-6-(3,5-dimethylphenyl)thio-2,4-pyrimidinedione]	8.99 µg/mL	124 to 126 °C	17 ng/mL (≈ 0.0366 µM)	
CCc1c(Oc2cc(C)cc(C)c2)n(Cc2ccc(OC(F)(F)F)cc2)c(=O)[nH]c1=O [Example 33, 1-(4-Trifluoromethoxybenzyl)-5-ethyl-6-(3,5-dimethyl-phenoxy)-2,4-pyrimidinedione]	>100.00 µg/mL	148 to 150 °C	69 ng/mL (≈ 0.159 µM)	
Cc1cc(C)cc(Oc2c(C(C)C)c(=O)[nH]c(=O)n2Cc2ccc(OC(F)(F)F)cc2)c1 [Example 34, 1-(4-Trifluoromethoxybenzyl)-5-isopropyl-6-(3,5-dimethylphenoxy)-2,4-pyrimidinedione]	8.06 µg/mL	173 to 175 °C	45 ng/mL (≈ 0.1 µM)	
CCc1c(C(=O)c2cc(C)cc(C)c2)n(Cc2ccc(OC(F)(F)F)cc2)c(=O)[nH]c1=O [Example 35, 1-(4-Trifluoromethoxybenzyl)-5-ethyl-6-(3,5-dimethylbenzoyl)-2,4-pyrimidinedione]	33.83 µg/mL	155 to 157 °C	4 ng/mL (≈ 0.00896 µM)	
Cc1cc(C)cc(C(=O)c2c(C(C)C)c(=O)[nH]c(=O)n2Cc2ccc(OC(F)(F)F)cc2)c1 [Example 36, 1-(4-Trifluoromethoxybenzyl)-5-isopropyl-6-(3,5-dimethyl-benzoyl)-2,4-pyrimidinedione]	7.88 µg/mL	79 to 81 °C	5 ng/mL (≈ 0.0109 µM)	
CCc1c(Sc2cc(C)cc(C)c2)n(Cc2ccccc2C#N)c(=O)[nH]c1=O [Example 37, 1-(2-Cyanobenzyl)-5-ethyl-6-(3,5-dimethylphenyl)thio-2,4-pyrimidinedione]	>100.00 µg/mL	221 to 223 °C	43 ng/mL (≈ 0.11 µM)	
Cc1cc(C)cc(Sc2c(C(C)C)c(=O)[nH]c(=O)n2Cc2ccccc2C#N)c1 [Example 38, 1-(2-Cyanobenzyl)-5-isopropyl-6-(3,5-dimethylphenyl)-thio-2,4-pyrimidinedione]	>100.00 µg/mL	238 to 240 °C	82 ng/mL (≈ 0.202 µM)	
CCc1c(Oc2cc(C)cc(C)c2)n(Cc2ccccc2C#N)c(=O)[nH]c1=O [Example 39, 1-(2-Cyanobenzyl)-5-ethyl-6-(3,5-dimethylphenoxy)-2,4-pyrimidinedione]	60.47 µg/mL	267 to 270 °C	619 ng/mL (≈ 1.65 µM)	
Cc1cc(C)cc(Oc2c(C(C)C)c(=O)[nH]c(=O)n2Cc2ccccc2C#N)c1 [Example 40, 1-(2-Cyanobenzyl)-5-isopropyl-6-(3,5-dimethylphenoxy)-2,4-pyrimidinedione]	>100.00 µg/mL	276 to 278 °C	> 100000 ng/mL	
CCc1c(C(=O)c2cc(C)cc(C)c2)n(Cc2ccccc2C#N)c(=O)[nH]c1=O [Example 41, 1-(2-Cyanobenzyl)-5-ethyl-6-(3,5-dimethylbenzoyl)-2,4-pyrimidinedione]	2.56 µg/mL	257 to 259 °C	3 ng/mL (≈ 0.00774 µM)	
Cc1cc(C)cc(C(=O)c2c(C(C)C)c(=O)[nH]c(=O)n2Cc2ccccc2C#N)c1 [Example 42, 1-(2-Cyanobenzyl)-5-isopropyl-6-(3,5-dimethylbenzoyl)-2,4-pyrimidinedione]	>100.00 µg/mL	250 to 253 °C	5 ng/mL (≈ 0.0125 µM)	
CCc1c(Sc2cc(C)cc(C)c2)n(Cc2cccc(C#N)c2)c(=O)[nH]c1=O [Example 43, 1-(3-Cyanobenzyl)-5-ethyl-6-(3,5-dimethylphenyl)thio-2,4-pyrimidinedione]	1.77 µg/mL	179 to 181 °C		15 ng/mL (≈ 0.0383 µM)
Cc1cc(C)cc(Sc2c(C(C)C)c(=O)[nH]c(=O)n2Cc2cccc(C#N)c2)c1 [Example 44, 1-(3-Cyanobenzyl)-5-isopropyl-6-(3,5-dimethylphenyl)thio-2,4-pyrimidinedione]	8.88 µg/mL	186 to 188 °C		8 ng/mL (≈ 0.0197 µM)
CCc1c(Oc2cc(C)cc(C)c2)n(Cc2cccc(C#N)c2)c(=O)[nH]c1=O [Example 45, 1-(3-Cyanobenzyl)-5-ethyl-6-(3,5-dimethylphenoxy)-2,4-pyrimidinedione]	>100.00 µg/mL	213 to 214 °C		61 ng/mL (≈ 0.162 µM)
Cc1cc(C)cc(Oc2c(C(C)C)c(=O)[nH]c(=O)n2Cc2cccc(C#N)c2)c1 [Example 46, 1-(3-Cyanobenzyl)-5-isopropyl-6-(3,5-dimethylphenoxy)-2,4-pyrimidinedione]	9.20 µg/mL	160 to 162 °C		23 ng/mL (≈ 0.0591 µM)
CCc1c(C(=O)c2cc(C)cc(C)c2)n(Cc2cccc(C#N)c2)c(=O)[nH]c1=O [Example 47, 1-(3-Cyanobenzyl)-5-ethyl-6-(3,5-dimethylbenzoyl)-2,4-pyrimidinedione]	2.53 µg/mL	206 to 207 °C		3 ng/mL (≈ 0.00774 µM)
Cc1cc(C)cc(C(=O)c2c(C(C)C)c(=O)[nH]c(=O)n2Cc2cccc(C#N)c2)c1 [Example 48, 1-(3-Cyanobenzyl)-5-isopropyl-6-(3,5-dimethylbenzoyl)-2,4-pyrimidinedione]	8.07 µg/mL	202 to 204 °C		3 ng/mL (≈ 0.00747 µM)
